From US20220017516A1, “LOX INHIBITORS” (THE INSTITUTE OF CANCER RESEARCH: ROYAL CANCER HOSPITAL, priority 2018, published 2022) come the findings set out here.

Where two headings read alike, the source gives them in different places.

One experiment deals with T1, LOXL2 (Homo sapiens, UniProt Q9Y4K0).
T1 construct: purchased R&D Systems/Bio-techne
T1 sequence (Q9Y4K0 26-774): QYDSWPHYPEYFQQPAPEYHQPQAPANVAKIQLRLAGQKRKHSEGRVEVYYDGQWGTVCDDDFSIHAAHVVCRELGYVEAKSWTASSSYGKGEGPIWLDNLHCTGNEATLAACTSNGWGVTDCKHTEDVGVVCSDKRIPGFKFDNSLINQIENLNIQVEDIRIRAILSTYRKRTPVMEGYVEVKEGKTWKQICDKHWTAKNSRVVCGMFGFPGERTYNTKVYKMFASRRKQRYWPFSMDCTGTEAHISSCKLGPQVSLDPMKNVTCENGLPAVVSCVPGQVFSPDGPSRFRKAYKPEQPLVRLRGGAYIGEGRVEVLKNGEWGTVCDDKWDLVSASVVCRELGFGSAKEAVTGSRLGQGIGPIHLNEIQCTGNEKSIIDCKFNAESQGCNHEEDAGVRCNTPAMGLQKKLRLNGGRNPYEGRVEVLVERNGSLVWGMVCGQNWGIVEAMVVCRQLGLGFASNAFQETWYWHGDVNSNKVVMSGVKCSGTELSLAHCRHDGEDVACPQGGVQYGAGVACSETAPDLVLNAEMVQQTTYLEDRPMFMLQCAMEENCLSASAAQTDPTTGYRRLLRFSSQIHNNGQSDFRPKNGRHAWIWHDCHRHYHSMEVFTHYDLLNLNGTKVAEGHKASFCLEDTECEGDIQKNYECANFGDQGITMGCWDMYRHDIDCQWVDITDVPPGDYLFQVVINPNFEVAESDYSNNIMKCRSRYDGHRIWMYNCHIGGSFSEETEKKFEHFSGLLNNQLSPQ
Put plainly: LOX isoform activity assay (ROS Glo), LOXL2. The experiment is classed as biochemical. The procedure, abridged: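 Human LOXL2 in 100 mM CHES pH 9 (1 M urea, 100 mM NaCl, 1 mM MgCl2, 0.5% BSA, 0.05% pluronic F-127) preincubated with compound (0.003–100 μM final) for 20 min, 1 h or 20 h. Cadaverine 19.56 mM and H2O2 25 μM added, 1 h at RT. Luminescence (ROS-Glo luciferin detection) fitted to IC50.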

For experiment [1], the target named is T2, monoamine oxidase A (MAO-A) (Homo sapiens, UniProt P21397).
T2 construct: purchased Promega V1452
T2 sequence (P21397 1-527): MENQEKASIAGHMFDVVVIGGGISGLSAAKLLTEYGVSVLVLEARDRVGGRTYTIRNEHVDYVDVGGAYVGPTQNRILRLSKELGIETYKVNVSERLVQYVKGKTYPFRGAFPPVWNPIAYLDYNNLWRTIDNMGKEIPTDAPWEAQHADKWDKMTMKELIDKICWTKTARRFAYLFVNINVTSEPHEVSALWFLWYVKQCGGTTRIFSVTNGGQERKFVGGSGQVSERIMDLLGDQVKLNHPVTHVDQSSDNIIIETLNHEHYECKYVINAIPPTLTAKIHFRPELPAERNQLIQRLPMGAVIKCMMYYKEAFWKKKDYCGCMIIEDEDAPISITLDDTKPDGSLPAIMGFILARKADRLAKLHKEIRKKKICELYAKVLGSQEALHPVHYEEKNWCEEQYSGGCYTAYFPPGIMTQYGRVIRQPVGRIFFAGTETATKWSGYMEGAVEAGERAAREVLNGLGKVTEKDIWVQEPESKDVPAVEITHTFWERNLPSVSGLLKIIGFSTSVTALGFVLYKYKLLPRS
Put plainly: Amine oxidase activity assay (MAO-Glo), MAO-A. The experiment is classed as biochemical. The procedure:
The Promega MAO-Glo assay kit (V1402) was used to assess monoamine oxidase A (MAO-A) and monoamine oxidase B (MAO-B) activity. MAO substrate was prepared at 80 μM with the specific MAO-A/B reaction buffer. Overall, 0.5 μl test compound was added to 25 μl MAO substrate at 100, 30, 10, 3, 1, 0.3, 0.1, 0.03, 0.01 and 0.003 μM (final concentration) in a 96-well white, flat bottom plate. Overall, 25 μl of 1:520 dilution of MAO-A enzyme (Promega, V1452) or 25 μl of 1:52 dilution of MAO-B enzyme (Sigma, M7441) in specific MAO-A/B reaction buffer was added to each well (enzyme prepared at 2×final concentration) and plates were incubated for 1 h at room temperature. Finally, 50 μl per well luciferin detection reagent was added and plates were incubated for 20 min at room temperature, protected from light. Luminescence was measured with an integration time of 500 ms per well using a SpectaMax M5 plate reader and resulting IC50 values were calculated using GraphPad Prism software.
In another setting, the DAO and MAO assays were performed in 384-well plates (Greiner) and test compound was added using a Labcyte Echo™ Acoustic Handler for the same final concentrations as in the 96-well setting. Luminescence was measured with BMG LABTECH PHERAstar FS plate reader.

[2] abbreviates: 20 hr incubation with enzyme; read-out: LOXL2 IC50 c) 20 hr.
The mark [3] stands for this setting: 1 hr incubation with enzyme; read-out: LOXL2 IC50 b) 1 hr.

Usually IC50 stands for the concentration needed to halve the response being measured. `CCOc1ccc(N2C[C@H]3CN(CCS(=O)(=O)CCN)C[C@@H]2C(C)(C)C3)cc1` [Example 1, 2-((2-((1R,5S)-6-(4-ethoxyphenyl)-9,9-dimethyl-3,6-diazabicyclo[3.2.2]nonan-3-yl)ethyl)sulfonyl)ethan-1-amine]: the IC50 is 1.6 µM at LOXL2 (setting [2]) and > 100 µM in experiment [1].

`CCOc1ccc(N2C[C@@H]3C[C@H]2CN3CCS(=O)(=O)CCN)cc1` [Example 2, 2-((2-((1S,4S)-5-(4-ethoxyphenyl)-2,5-diazabicyclo[2.2.1]heptan-2-yl)ethyl)sulfonyl)-ethan-1-amine]: the IC50 on LOXL2 (setting [2]) is 0.4 µM; in experiment [1], > 100 µM.

As to `CCOc1ccc(N2CC3CN(CCS(=O)(=O)CCN)CC3C2)cc1` (centres unmarked) [Example 4, 2-((2-(5-(4-ethoxyphenyl)hexahydropyrolo [3,4-c]pyrrol-2(1H)-yl)ethyl)sulfonyl)ethan-1-amine], the IC50 at LOXL2 (20 min incubation with enzyme; read-out: LOXL2 IC50 a) 20 min) was 7.3 µM; in experiment [1], > 100 µM.

On to `CCOc1ccc(N2C[C@H]3CN(C(=O)CS(=O)(=O)CCN)C[C@@H]2C(C)(C)C3)cc1` [Example 7, 2-((2-aminoethyl)sulfonyl)-1-((1S,5S)-6-(4-ethoxyphenyl)-9,9-dimethyl-3,6-diazabicyclo[3.2.2]nonan-3-yl)ethan-1-one], for which the values for the IC50 (on LOXL2 (setting [2]); in experiment [1]) were 0.27 µM and > 100 µM, respectively.

For `CCOc1ccc(N2C[C@@H]3C[C@H]2CN3C(=O)CS(=O)(=O)CCN)cc1` [Example 8, 2-((2-aminoethyl)-sulfonyl)-1-((1S,4S)-5-(4-ethoxyphenyl)-2,5-diazabicyclo-[2.2.1]heptan-2-yl)-ethan-1-one], the IC50 was 0.15 µM at LOXL2 (setting [2]) and > 100 µM in experiment [1].

Consider `Cc1ccc(S(=O)(=O)N2C[C@H]3CN(C(=O)CS(=O)(=O)CCN)C[C@H]3C2)cc1` [Example 11, 2-((2-aminoethyl)-sulfonyl)-1-(cis-5-tosylhexahydro-pyrrolo[3,4-c]pyrrol-2(1H)-yl)ethan-1-one], for which the IC50 at LOXL2 (setting [3]) is 0.17 µM; in experiment [1], > 100 µM.

Regarding `NCCS(=O)(=O)CC(=O)N1CCN(c2ncccn2)CC1` [Example 12, 2-((2-Aminoethyl)-sulfonyl)-1-(4-(pyrimidin-2-yl)-piperazin-1-yl)ethan-1-one], the figures for the IC50 (at LOXL2 (setting [3]); in experiment [1]) were 0.43 µM and > 100 µM, respectively.

`NCCS(=O)(=O)CC(=O)N1CCN(c2ccccc2)CC1` [Example 13, 2-((2-Aminoethyl)-sulfonyl)-1-(4-phenylpiperazin-1-yl)ethan-1-one]: the IC50 at LOXL2 (setting [3]) is 0.4 µM; in experiment [1] it was > 100 µM.

For `CCOc1ccc(N2C[C@H]3CN(c4ccc(S(=O)(=O)CCN)cc4)C[C@@H]2C(C)(C)C3)cc1` [Example 33, 2-((4-((1R,5S)-6-(4-ethoxyphenyl)-9,9-dimethyl-3,6-diazabicyclo [3.2.2]nonan-3-yl)phenyl)sulfonyl)ethan-1-amine], the IC50 was 16 µM at LOXL2 (setting [2]) and > 100 µM in experiment [1].

For `CCOc1ccc(N2C[C@H]3CN(C(=O)NCCS(=O)(=O)CCN)C[C@@H]2C(C)(C)C3)cc1` [Example 38, (1S,5S)—N-(2-((2-aminoethyl)sulfonyl)ethyl)-6-(4-ethoxyphenyl)-9,9-dimethyl-3,6-diazabicyclo[3.2.2]nonane-3-carboxamide], the IC50 at LOXL2 (setting [3]) worked out at 0.58 µM.

Consider `CCOC(=O)CCC(C(=O)N1C[C@@H]2C[C@H]1CN2c1ccc(OCC)cc1)S(=O)(=O)CCN` (stereo partly drawn) [Example 41, ethyl 4-((2-aminoethyl)sulfonyl)-5-((1S,4S)-5-(4-ethoxyphenyl)-2,5-diazabicyclo[2.2.1]heptan-2-yl)-5-oxopentanoate], for which the IC50 on LOXL2 (setting [3]) is 3.1 µM; in experiment [1], > 100 µM.

On to `CCOc1ccc(N2C[C@@H]3C[C@H]2CN3C(=O)C2(S(=O)(=O)CCN)CC2)cc1` [Example 42, (1-((2-Aminoethyl)sulfonyl)cyclopropyl)((1S,4S)-5-(4-ethoxyphenyl)-2,5-diazabicyclo[2.2.1]heptan-2-yl)methanone], for which the values for the IC50 (at LOXL2 (setting [3]); in experiment [1]) were 11 µM and > 100 µM, respectively.
